Source: patent US20070037238A1, “Composition for suppressing PQQGDH reaction inhibition” (Toyo Boseki Kabushiki Kaisha, priority 2005, published 2007)

System: PQQGDH
Experiment: Measurement with glucose electrodes
Assay type: biochemical
Conditions: 0.1 M potassium ferricyanide, D-glucose 5-40 mM, 25° C., +0.35 V
Experimental: 0.5 g of carbon graphite and 0.3 mL of fluid paraffin were ground well with a mortar and pestle to form a carbon paste. This carbon paste was spread on a platinum electrode, and 10 μL of PQQGDH solution (Toyo Boseki GLD-331, 2,000 U/mL) was placed thereon and air-dried for 30 minutes at room temperature. This electrode was covered with a semipermeable cellulose membrane (molecular weight cut-off 8.000), and the semipermeable membrane was fixed with an O-ring to prepare a glucose electrode. This glucose electrode was used after having been soaked for 30 minutes or more in the buffer used for measurement. […] After about 5 minutes when the response current was confirmed to have stabilized, a D-glucose solution was added and the rise in the response current was monitored. […] The theoretical values here are the response value at each concentration calculated based on measurement values at 5 mM, assuming that the D-glucose amount and measurement value are proportional, and these are given as straight lines in the figures. The response values were more linear when pimelic acid and succinic acid were added in comparison to the solution of phosphoric acid and glutaric acid alone, and the actual measured response values at glucose concentrations of 30 mM or more are particularly close to the corresponding theoretical values.

SMILES	linearity of glucose electrode response values versus D-glucose concentration (1% pimelic acid in 50 mM potassium phosphate buffer pH 7.0 (Buffer B vs Buffer A))	linearity of glucose electrode response values versus D-glucose concentration (1% succinic acid in 50 mM glutaric acid pH 7.0 (Buffer D vs Buffer C))
O=C(O)CCCCCC(=O)O [pimelic acid]	more linear	
O=C(O)CCC(=O)O [succinic acid]		more linear
